# According to PubChem BioAssay (NCI):
# Values joined by “and” are separate entries in the source; they are usually repeats but may differ in a detail not shown here. Equal values may be shown once.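 Where inhibition never reached the appropriate level, the endpoint shown equals the highest concentration tested. Otherwise, values were interpolated linearly from a five-concentration, 48-hour dose response in 96-well plates. Here, GI50 denotes the concentration required for 50% inhibition of growth. At the TGI there is no net growth.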
# Tested on: A498 renal
# Assay: inhibition of tumour cell growth, NCI panel, 48 h
Structure (SMILES),TGI,GI50 [nM]
O=C1CN=C(C[N+](=O)[O-])c2ccccc21,> 100 µM,–
CCCCN(CCCC)CC(C(=O)Nc1ccc([N+](=O)[O-])cc1[N+](=O)[O-])/C(C)=N\NC(=S)NN (stereo not drawn),> 100 µM,–
S=C(N/N=C/c1ccco1)NC12CC3CC(CC(C3)C1)C2,> 100 µM,–
CS(=O)(=O)N/N=C/CN1C(=O)c2ccccc2C1=O,> 100 µM,–
CC(=O)O.CC(=O)O.CC(=O)O.CC(=O)O.CC(=O)O.CC(=O)O.O.[Ti].[Ti],> 100 µM,> 100000
COC(=O)C1=C(c2ccc3c(c2)OCO3)O[C@H](c2cc(OC)c(OC)c(OC)c2)[C@H]1COC(C)=O,2.94 µM,–
COc1ccc(OC)c(NC(=O)C(=O)NNC(=O)c2sc(NNC(C)=O)nc2C)c1,52.1 µM,–
O=[N+]([O-])c1nccn1CC(O)c1ccc(F)cc1 (stereo not drawn),> 100 µM,–
CCCCOC(=O)C1C(c2ccc(Cl)cc2)NC(c2ccc(Cl)cc2)C(C(=O)OCCCC)S1(=O)=O (stereo not drawn),> 100 µM,–
Cc1cc(Br)cc(C)c1NC(=O)C(=O)C(C(=O)c1ccc2ccccc2c1)C1OC(=O)c2ccccc21 (stereo not drawn),25.6 µM,–
CCOC(=O)Oc1c(OC)cc(C(=O)NC2CCc3cc(OC)c(OC)c(OC)c3-c3ccc(SC)c(=O)cc32)cc1OC (stereo not drawn),0.514 µM and 0.0622 µM,20.6
CC(=O)Nc1ccc(C(=O)NN2C(=O)C(Cl)C2c2ccccc2)cc1 (stereo not drawn),> 100 µM,–
COC(=O)c1cc2c(cc1O)[C@@H](NC(C)=O)CCc1cc(OC)c(OC)c(OC)c1-2,–,42.2
CC(C)(C)OC(=O)NCC(=O)OCc1ccccc1,> 100 µM,–
Cc1ccc(SC(C)/C=C/NNC2=NC(c3ccccc3)C(c3ccccc3)=NN2)cc1 (stereo not drawn),> 100 µM,–
CSc1nc2c(nc(C)c(=O)n2C2OCC(OC(C)=O)C(OC(C)=O)C2OC(C)=O)c(=O)[nH]1 (stereo not drawn),> 100 µM,–
O=S(O)CCCCSSCC(O)C(O)CSSCCCCS(=O)O (stereo not drawn),> 100 µM,–
Clc1ccc2c(NCCCNc3nccc(Nc4ccc(Br)cc4)n3)ccnc2c1,2.48 µM,1220
Cc1ccccc1N1C(=O)/C(=C/c2ccc(N(CCC#N)CCC#N)cc2)N=C1c1cc([N+](=O)[O-])ccc1Cl,> 100 µM,–
COc1ccc(C2S/C(=C\c3ccccc3O)C(=O)N2NC(=O)Cc2ccccc2)cc1 (stereo not drawn),> 100 µM,–
Cc1ccc(S(=O)(=O)NCC2CCCCC2=O)cc1 (stereo not drawn),> 100 µM,–
CCC[CH2][Sn]([CH2]CCC)([CH2]CCC)[O]C(=O)CC,0.256 µM,120
CC1OC(n2cc(F)c(=O)[nH]c2=O)C=CC1O (stereo not drawn),> 100 µM,–
C=C(C=O)[C@@H]1C2OC(=O)C(=C)[C@@H]2CC(O)[C@@]1(C)CC (stereo partly drawn),39.5 µM,–
C=C(CCCCC)CN1CCCC1[C@@](C)(O)CC(=O)OCC (stereo partly drawn),> 100 µM,–
O=C1c2ccccc2C(=O)C1(Cl)C1(S(=O)(=O)O)c2ccccc2-c2ccccc21,> 100 µM,–

# Tested on: COLO 205 colon
# Assay: inhibition of tumour cell growth, NCI panel, 48 h
Structure (SMILES),GI50 [nM],TGI
Cn1cc(C2=C(c3ccc4ccccc4c3)C(=O)NC2=O)c2ccccc21,20800,> 25 µM
O=C(OCc1ccc2cccc(O)c2n1)N1CCN(C(=O)c2cc3cc(F)ccc3[nH]2)CC1,622,2.07 µM
CNC(=S)N(C)C(=S)Nn1c(=O)c(C)nn(C)c1=S,–,> 100 µM
O=C1CCCC/C(=C/c2ccccc2)N1,–,> 100 µM
O=C1CN=C(C[N+](=O)[O-])c2ccccc21,–,> 100 µM
CCCCN(CCCC)CC(C(=O)Nc1ccc([N+](=O)[O-])cc1[N+](=O)[O-])/C(C)=N\NC(=S)NN (stereo not drawn),–,> 100 µM
S=C(N/N=C/c1ccco1)NC12CC3CC(CC(C3)C1)C2,–,33.4 µM
CS(=O)(=O)N/N=C/CN1C(=O)c2ccccc2C1=O,–,> 100 µM
CC(C)(C)C(=O)OCOP(=O)(OCOC(=O)C(C)(C)C)C1CCCN(O)C1=O (stereo not drawn),600,3.64 µM
CC(=O)O.CC(=O)O.CC(=O)O.CC(=O)O.CC(=O)O.CC(=O)O.O.[Ti].[Ti],> 100000,> 100 µM
COC(=O)C1=C(c2ccc3c(c2)OCO3)O[C@H](c2cc(OC)c(OC)c(OC)c2)[C@H]1COC(C)=O,–,3.02 µM
CCCCc1c(OC)cc(O)c2c1C(=O)c1[nH]c(C(=O)O)c(O)c(=O)c1C2=O,–,64.6 µM
O=[N+]([O-])c1nccn1CC(O)c1ccc(F)cc1 (stereo not drawn),–,> 100 µM
COc1ccc(NC(=O)CCc2cc(-c3ccc(O)c(OC)c3)nc(NC#N)n2)cc1,–,> 100 µM
COC(=O)c1cc2c3ccccc3n(C(C)=O)c2cn1,–,> 100 µM
O=C1c2ccccc2C2(Br)C(=O)c3ccccc3C12 (stereo not drawn),–,> 100 µM
CCCCOC(=O)C1C(c2ccc(Cl)cc2)NC(c2ccc(Cl)cc2)C(C(=O)OCCCC)S1(=O)=O (stereo not drawn),–,> 100 µM
Cc1cc(Br)cc(C)c1NC(=O)C(=O)C(C(=O)c1ccc2ccccc2c1)C1OC(=O)c2ccccc21 (stereo not drawn),–,50.9 µM
CCOC(=O)Oc1c(OC)cc(C(=O)NC2CCc3cc(OC)c(OC)c(OC)c3-c3ccc(SC)c(=O)cc32)cc1OC (stereo not drawn),13.8,0.191 µM and 0.0613 µM
CC(=O)Nc1ccc(C(=O)NN2C(=O)C(Cl)C2c2ccccc2)cc1 (stereo not drawn),–,> 100 µM

Structure (SMILES),GI50 [nM],TGI
COC(=O)c1cc2c(cc1O)[C@@H](NC(C)=O)CCc1cc(OC)c(OC)c(OC)c1-2,23.6,1.56 µM and 1.18 µM
CC(C)(C)OC(=O)NCC(=O)OCc1ccccc1,–,> 100 µM
Cc1ccc(SC(C)/C=C/NNC2=NC(c3ccccc3)C(c3ccccc3)=NN2)cc1 (stereo not drawn),–,> 100 µM
CC(C)(C)[SiH]12(OC(C(F)(F)F)(C(F)(F)F)c3ccccc31)OC(C(F)(F)F)(C(F)(F)F)c1ccccc12,–,21 µM
CSc1nc2c(nc(C)c(=O)n2C2OCC(OC(C)=O)C(OC(C)=O)C2OC(C)=O)c(=O)[nH]1 (stereo not drawn),–,> 100 µM
O=S(O)CCCCSSCC(O)C(O)CSSCCCCS(=O)O (stereo not drawn),–,29 µM and 39.5 µM
O=C1OC(c2ccccc2)=N/C1=C/C=C/c1ccco1,–,> 100 µM
Clc1ccc2c(NCCCNc3nccc(Nc4ccc(Br)cc4)n3)ccnc2c1,1640,3.22 µM
Cc1ccccc1N1C(=O)/C(=C/c2ccc(N(CCC#N)CCC#N)cc2)N=C1c1cc([N+](=O)[O-])ccc1Cl,–,72 µM
COc1ccc(C2S/C(=C\c3ccccc3O)C(=O)N2NC(=O)Cc2ccccc2)cc1 (stereo not drawn),–,> 100 µM
Cc1ccc(S(=O)(=O)NCC2CCCCC2=O)cc1 (stereo not drawn),–,> 100 µM
CC(C)=C[C@@H]1C[C@H](C)[C@H]2CC[C@H](C)C3=C2[C@](O)(OC3=O)[C@]1(C)O,> 100000,> 100 µM
CCC[CH2][Sn]([CH2]CCC)([CH2]CCC)[O]C(=O)CC,178,0.372 µM
CNC(=S)NC1CCCCC1NC(=S)NC (stereo not drawn),–,> 100 µM
CC1OC(n2cc(F)c(=O)[nH]c2=O)C=CC1O (stereo not drawn),–,> 100 µM
C=C(C=O)[C@@H]1C2OC(=O)C(=C)[C@@H]2CC(O)[C@@]1(C)CC (stereo partly drawn),–,11.7 µM
C=C(CCCCC)CN1CCCC1[C@@](C)(O)CC(=O)OCC (stereo partly drawn),–,> 100 µM
C=CC1CC12C(=O)C1OC2(C)C2C(=O)c3cc4ccccc4cc3C(=O)C12 (stereo not drawn),44700,> 100 µM
O=C1c2ccccc2C(=O)C1(Cl)C1(S(=O)(=O)O)c2ccccc2-c2ccccc21,–,> 100 µM

# Tested on: IGROV1 ovarian
# Assay: inhibition of tumour cell growth, NCI panel, 48 h
Structure (SMILES),TGI [µM],GI50 [nM]
O=[n+]1c2c(n([O-])c3ccccc31)CCCCCCCCCC2,> 100,–
Cn1cc(C2=C(c3ccc4ccccc4c3)C(=O)NC2=O)c2ccccc21,> 25,> 19500
O=C(OCc1ccc2cccc(O)c2n1)N1CCN(C(=O)c2cc3cc(F)ccc3[nH]2)CC1,1.64,403
CNC(=S)N(C)C(=S)Nn1c(=O)c(C)nn(C)c1=S,> 100,–
O=C1CCCC/C(=C/c2ccccc2)N1,> 100,–
O=C1CN=C(C[N+](=O)[O-])c2ccccc21,> 100,–
CCCCN(CCCC)CC(C(=O)Nc1ccc([N+](=O)[O-])cc1[N+](=O)[O-])/C(C)=N\NC(=S)NN (stereo not drawn),> 100,–
S=C(N/N=C/c1ccco1)NC12CC3CC(CC(C3)C1)C2,> 100,–
CS(=O)(=O)N/N=C/CN1C(=O)c2ccccc2C1=O,> 100,–
CC(C)(C)C(=O)OCOP(=O)(OCOC(=O)C(C)(C)C)C1CCCN(O)C1=O (stereo not drawn),2.73,393
CC(=O)O.CC(=O)O.CC(=O)O.CC(=O)O.CC(=O)O.CC(=O)O.O.[Ti].[Ti],> 100,> 100000
COC(=O)C1=C(c2ccc3c(c2)OCO3)O[C@H](c2cc(OC)c(OC)c(OC)c2)[C@H]1COC(C)=O,81,–
COc1ccc(OC)c(NC(=O)C(=O)NNC(=O)c2sc(NNC(C)=O)nc2C)c1,> 100,–
CCCCc1c(OC)cc(O)c2c1C(=O)c1[nH]c(C(=O)O)c(O)c(=O)c1C2=O,64.2,–
O=[N+]([O-])c1nccn1CC(O)c1ccc(F)cc1 (stereo not drawn),> 100,–
COc1ccc(NC(=O)CCc2cc(-c3ccc(O)c(OC)c3)nc(NC#N)n2)cc1,> 100,–
COC(=O)c1cc2c3ccccc3n(C(C)=O)c2cn1,> 100,–
O=C1c2ccccc2C2(Br)C(=O)c3ccccc3C12 (stereo not drawn),> 100,–
CCCCOC(=O)C1C(c2ccc(Cl)cc2)NC(c2ccc(Cl)cc2)C(C(=O)OCCCC)S1(=O)=O (stereo not drawn),> 100,–
Cc1cc(Br)cc(C)c1NC(=O)C(=O)C(C(=O)c1ccc2ccccc2c1)C1OC(=O)c2ccccc21 (stereo not drawn),51.8,–
